The record followed here is PMC10794370, “Impact of plastic-related compounds on the gene expression signature of HepG2 cells transfected with CYP3A4” (Archives of Toxicology, 2023).

Entries after “also recorded” stand apart in the source; their conditions may differ. Read-outs that look alike come from different tables or passages of the source.

What all share (format): cell-based
The nature of data set [1]: Cytotoxicity (resazurin) growth inhibition assay. To be noted: human. The procedure:
The cytotoxicity of six compounds selected from in-silico screening was analyzed through a resazurin assay. Aliquots of 10^4 CYP3A4-overexpressing HepG2 cells were seeded per well into 96-well plates. Cells were treated with different concentrations of the selected compounds ranging from 0.003 to 100 µM in a total volume of 200 µL for 72 h. Then, 20 µL/well of resazurin 0.01% w/v (Sigma Aldrich, Taufkirchen, Germany) was added. The fluorescence intensity was measured with the Infinite M200 Pro-plate reader (Tecan, Crailsheim, Germany). Dose–response curves were generated from three independent experiments for each compound and 50% inhibition concentrations (IC50) were calculated. The analysis was represented using Prism 6 GraphPad Software (La Jolla, CA, USA).

Data set [2] concerns CYP3A4-overexpressing HepG2 cells. Put plainly: Flow cytometric cell cycle analysis. Particulars: IC50 concentration, 24 h; for S-phase cells population: control 12.47 ± 0.83%; for cells in G2/M phase: control 18.70 ± 0.69%. The procedure: After 24 h of incubation, cells were fixed with ethanol and stored at −20 °C overnight. […] The measurement was performed using a BD LSRFortessa™ Cell Analyzer (Becton–Dickinson, Heidelberg, Germany). The results were analyzed using FlowJo software (Celeza, Olten, Switzerland).

The test system is the same in data set [3]. Description: RNA-sequencing and gene set enrichment analysis. To be noted: IC50 concentration, 24 h; for number of 'DNA-templated DNA replication' genes influenced by only one compound: Venn diagram; for activated pathway (gene set enrichment, GO Biological Process) / number of genes affected in 'nuclear chromosome segregation' pathway / number of genes involved in 'inflammatory response' pathway / number of genes targeted in 'DNA-templated DNA replication' pathway / suppressed pathway (gene set enrichment, GO Biological Process): vs DMSO control. On the procedure: Aliquots of 5 × 10^5 CYP3A4-overexpressing HepG2 cells were seeded into six-well-plates 24 h before treatment. Cells were treated with previously calculated IC50 concentrations of the compounds of interest. Control (ctrl) cells were treated with 0.2% DMSO. After 24 h incubation, the cells were harvested. RNA extraction was performed with the […] RNA Mini Kit (Invitek Molecular GmbH, Berlin, Germany), according to the manufacturer's instruction. Briefly, the cell pellet was lysed with 350 μL Lysis Solution and treated with β-mercaptoethanol. […] After several washing steps, RNA was eluted with 60 μL of Elution Buffer R and the concentration and purity measured with NanoDrop. Next-generation sequencing was conducted by […] GmbH, Mainz, Germany. The quality of the extracted RNA was verified by the company with a 2100 Bioanalyzer system (Agilent Technologies, CA, USA). After mRNA isolation and library preparation using the NEBNext^© UltraTM II Directional RNA Library Prep Kit (New England Biolabs, MA, USA), RNA sequencing of around 25 mio PE reads (2 × 12.5 M reads, 2 × 150 nt) was performed with the Illumina NextSeq 2000TM system. Each treatment and control group included two replicates. Quality control on the sequencing data was performed with the FastQC tool (0.12.0, https://www.bioinformatics.babraham.ac.uk/projects/fastqc/). Transcript abundance estimates were computed with Salmon (version 1.5.0) (Patro et al. [2017]) with a transcriptome index generated from the GENCODE (version 38), and subsequently summarized to gene level with the […] package (version 1.16.0) (Love et al. [2020]). The exploration, modelling, and interpretation of the expression data followed previously described protocols (Ludt et al. [2022]). Exploratory data analysis was executed with the pcaExplorer package (version 2.24.0) (Marini and Binder [2019]). Differential expression analysis was performed with DESeq2 package (version 1.38.3) (Love et al. [2014]), setting the false discovery rate (FDR) cutoff to 0.05. Accurate estimation of the effect sizes (described as log2 fold change) was finalized using the […] shrinkage estimator (version 1.20.0) (Zitovsky and Love [2020]). Subsequent analyses included Gene Ontology pathway enrichment by topGO (version 2.50.0) (Alexa et al. [2006])-using all expressed genes as background dataset and the ideal package (version 1.22.0) (Ludt et al. [2022])-and by clusterProfiler (version 4.6.0) (Wu et al. [2021]) with default settings using the log fold change as input. […] [2021]). Gene expression profiles were plotted as heatmaps (color-coded standardized Z scores for the expression values, after variance stabilizing transformation) to simplify comparison across samples.

Setting [4] is: 72 h, resazurin, mean ± SD of three independent experiments, read-out: IC50.
Where [5] appears, read: CYP3A4-overexpressing HepG2 cells, 72 h, resazurin, mean ± SD of three independent experiments, read-out: IC50.

With `O=C(OC1CCCCC1)c1ccccc1C(=O)OC1CCCCC1` [compound 1, dicyclohexyl phthalate], the IC50 at 72 h in data set [1] (setting [4]) was determined as 72.7 µM.

`CC(C)COC(=O)c1ccccc1C(=O)OCC(C)C` [compound 2, diisobutyl phthalate]: the half-maximal inhibitory concentration (IC50) at 72 h in data set [1] (setting [4]) was above 100 µM.

In the case of `CC(C)(C)CC(C)(C)c1ccc(O)c(-n2nc3ccccc3n2)c1` [compound 3, octrizole], the half-maximal inhibitory concentration (IC50) at 72 h in data set [1] (setting [5]) is 63.8 ± 2.21 µM.

Consider `Cc1cc(Cc2cc(C)cc(C(C)(C)C)c2O)c(O)c(C(C)(C)C)c1` [compound 4, 2,2′-methylene bis(6-tert-butyl-4-methylphenol)], for which, in data set [2], the S-phase cells population came to 6.26 ± 1.31% and the “cells in G2/M phase” value is listed as 26.70 ± 8.40%. Half-maximal inhibition in data set [1] (IC50 at 72 h) required 17.4 µM. Besides, in data set [3], the “number of 'DNA-templated DNA replication' genes influenced by only one compound” value (from here on “number … by only one compound”) was 10 genes; the “activated pathway (gene set enrichment, GO Biological Process)” value is “icosanoid metabolic process; also recorded: anion transport; also recorded: response to metal ions; also recorded: regulation of growth; also recorded: response to cytokines; also recorded: inflammatory response”; the “number of genes affected in 'nuclear chromosome segregation' pathway” value worked out at 103 genes; the “number of genes involved in 'inflammatory response' pathway” value was found to be 76 genes. For the same molecule, in data set [3], the “number of genes targeted in 'DNA-templated DNA replication' pathway” value (from here on “number of genes targeted”) is 78 genes and the “suppressed pathway (gene set enrichment, GO Biological Process)” value was “regulation of chromosome segregation; also recorded: regulation of mitotic sister chromatid separation; also recorded: nuclear chromosome segregation; also recorded: chromosome organization; also recorded: metaphase/anaphase transition of mitotic cell cycle; also recorded: response to vitamin”.

For `CC(c1cc(C(C)(C)C)cc(C(C)(C)C)c1O)c1cc(C(C)(C)C)cc(C(C)(C)C)c1O` [compound 5, 1,1-bis(3,5-di-tert-butyl-2-hydroxyphenyl)ethane], in data set [2], the S-phase cells population was 10.88 ± 3.84% and the “cells in G2/M phase” value is listed as 25.13 ± 2.25%. Further, in data set [1] (setting [5]), the concentration for half-maximal inhibition (IC50) at 72 h came to 20 ± 1.68 µM. Besides, in data set [3], the “number … by only one compound” value came to 8 genes; the “activated pathway (gene set enrichment, GO Biological Process)” value is “autophagy; also recorded: process utilizing autophagic mechanism; also recorded: response to endoplasmic reticulum stress; also recorded: cytokine production; also recorded: Golgi vesicle transport; also recorded: response to growth factors; also recorded: cellular response to growth factor stimulation”; the “number of genes targeted” value is listed as 68 genes; the “suppressed pathway (gene set enrichment, GO Biological Process)” value is listed as “cholesterol metabolic process; also recorded: cholesterol biosynthetic process; also recorded: secondary alcohol biosynthetic process; also recorded: sterol metabolic process; also recorded: alcohol metabolic process; also recorded: small molecule metabolic process; also recorded: organic hydroxy compound metabolic process”.

As to `Cc1cc(Cc2cc(C)cc(C3CCCCC3)c2O)c(O)c(C2CCCCC2)c1` [compound 6, 2,2′-methylene bis(6-cyclohexyl-4-methylphenol)], in data set [2], the S-phase cells population is given as 7.06 ± 5.94% and the “cells in G2/M phase” value was found to be 25.77 ± 0.95%. Further, in data set [1] (setting [5]), the IC50 at 72 h came out at 18 ± 1.21 µM. For the same molecule, in data set [3], the “number … by only one compound” value turned out to be 5 genes; the “activated pathway (gene set enrichment, GO Biological Process)” value is recorded as “response to nutrients levels; also recorded: regulation of extent of growth; also recorded: response to wounding; also recorded: inflammatory response; also recorded: cytokine production”; the “number of genes affected in 'nuclear chromosome segregation' pathway” value stood at 83 genes; the “number of genes involved in 'inflammatory response' pathway” value was found to be 90 genes. Also, in data set [3], the “number of genes targeted” value is 72 genes and the “suppressed pathway (gene set enrichment, GO Biological Process)” value is recorded as “regulation of chromosome segregation; also recorded: regulation of mitotic sister chromatid separation; also recorded: nuclear chromosome segregation; also recorded: chromosome organization”.
